Source: patent publication US7786141B2 (Vertex Pharmaceuticals Incorporated, priority 2004, dated 2010)
Like-named read-outs stand apart in the source and are kept apart here.

What was measured:
M1 muscarinic receptor = target: T1, M1 muscarinic receptor (Homo sapiens, UniProt P11229); test: Functional mobilization of intracellular calcium (FLIPR) in M1-CHO cells; format: cell-based
T1 construct: expressed in transfected cells; host or cells: CHO (M1-CHO)
T1 sequence (P11229 1-460): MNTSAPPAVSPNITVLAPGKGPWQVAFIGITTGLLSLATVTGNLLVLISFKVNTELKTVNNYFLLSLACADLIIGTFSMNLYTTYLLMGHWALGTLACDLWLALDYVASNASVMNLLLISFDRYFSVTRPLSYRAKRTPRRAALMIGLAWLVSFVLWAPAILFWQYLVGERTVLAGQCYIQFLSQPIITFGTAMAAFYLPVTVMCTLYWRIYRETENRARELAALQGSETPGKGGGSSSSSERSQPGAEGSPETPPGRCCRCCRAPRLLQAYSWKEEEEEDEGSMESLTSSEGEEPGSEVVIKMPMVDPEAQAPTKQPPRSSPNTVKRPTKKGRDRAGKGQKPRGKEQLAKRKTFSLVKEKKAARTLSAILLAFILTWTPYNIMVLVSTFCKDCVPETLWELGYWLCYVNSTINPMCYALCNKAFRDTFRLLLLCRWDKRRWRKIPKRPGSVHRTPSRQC
Procedure, shortened: (§1)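 Steps: seed M1- or M4-CHO cells 18-24 hrs ahead; load calcium dye with 1 mM probenecid; add test compound (0.5% DMSO final), either alone for agonism or 15 min before EC80 carbachol for inhibition; record FLIPR fluorescence for 60 sec.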

M4 muscarinic receptor = target: T2, M4 muscarinic receptor (Homo sapiens, UniProt P08173); test: Functional mobilization of intracellular calcium (FLIPR) in M4-CHO cells; format: cell-based
T2 construct: expressed in transfected cells; host or cells: CHO (M4-CHO)
T2 sequence (P08173 1-479): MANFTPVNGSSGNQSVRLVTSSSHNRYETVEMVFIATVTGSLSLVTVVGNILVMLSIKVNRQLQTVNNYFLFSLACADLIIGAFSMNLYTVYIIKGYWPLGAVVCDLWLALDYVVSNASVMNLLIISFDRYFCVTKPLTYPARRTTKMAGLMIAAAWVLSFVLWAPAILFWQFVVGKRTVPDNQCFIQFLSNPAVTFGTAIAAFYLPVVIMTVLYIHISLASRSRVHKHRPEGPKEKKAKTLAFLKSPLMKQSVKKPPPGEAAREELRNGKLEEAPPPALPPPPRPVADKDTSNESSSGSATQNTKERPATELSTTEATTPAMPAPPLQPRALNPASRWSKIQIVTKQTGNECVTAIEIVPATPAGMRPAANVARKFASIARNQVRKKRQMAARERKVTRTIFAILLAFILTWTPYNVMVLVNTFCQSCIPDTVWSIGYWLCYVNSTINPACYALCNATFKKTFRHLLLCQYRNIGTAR
Procedure, shortened: as §1

[1] = M1 receptor, calcium mobilization
[2] = M1 receptor, calcium mobilization, read-out: M1 Efficacy
[3] = M4 receptor, calcium mobilization
[4] = M4 receptor, calcium mobilization, read-out: M4 Efficacy
[5] = Table 4, 100% efficacy is the maximum response obtained with the Carbachol control
[6] = Table 4, modulating M1 receptor
[7] = Table 4, modulating M4 receptor
[8] = Table 4, M1 receptor, calcium mobilization (FLIPR)
[9] = Table 4, M4 receptor, calcium mobilization (FLIPR)

SMILES: C#CCCOC(=O)N1CCC(N2CCC3(CC2)CN(C(C)=O)c2ccc(F)cc23)CC1 [compound 62]
- M1 Activity (M1 muscarinic receptor; [1]): xxx (activity was measured to be less than 0.1 μM)
- Emax (M1 muscarinic receptor; [2]): < 65%
- M4 Activity (M4 muscarinic receptor; [3]): xx (activity was measured to be between 0.1 μM and 1.0 μM)
- Emax (M4 muscarinic receptor; [4]): 65 to 85%

SMILES: CCOC(=O)N1CCC(N2CCC3(C[C@H](NC(C)=O)c4cc(F)ccc43)C2)CC1 (some centres unmarked) [compound 538]
- Emax (M1 muscarinic receptor; [5]): 25 to 100%
- M1 Activity (M1 muscarinic receptor; [6]): xx (activity was measured to be between 2.0 μM and 5.0 μM)
- Emax (M4 muscarinic receptor; [5]): < 25%
- M4 Activity (M4 muscarinic receptor; [7]): x (activity was measured to be greater than 5.0 μM)

SMILES: CCOC(=O)N1CCC(N2CCC3(CC2)CN(C(=O)N(C)C)c2ccc(F)cc23)CC1 [compound 39]
- M1 Activity (M1 muscarinic receptor; [1]): xxx (activity was measured to be less than 0.1 μM)
- Emax (M1 muscarinic receptor; [2]): 65 to 85%
- M4 Activity (M4 muscarinic receptor; [3]): xx (activity was measured to be between 0.1 μM and 1.0 μM)
- Emax (M4 muscarinic receptor; [4]): > 85%

SMILES: CCOC(=O)N1C2CCC1CC(N1CCC3(CC1)CN(C(C)=O)c1c(C)cccc13)C2 (centres unmarked) [compound 444]
- Emax (M1 muscarinic receptor; [5]): 25 to 100%
- M1 Activity (M1 muscarinic receptor; [6]): xx (activity was measured to be between 2.0 μM and 5.0 μM)
- Emax (M4 muscarinic receptor; [5]): 25 to 100%
- M4 Activity (M4 muscarinic receptor; [7]): xx (activity was measured to be between 2.0 μM and 5.0 μM)

SMILES: COCC(=O)N1CCC(N2CCC3(CC2)CN(C(=O)N(C)C)c2ccc(F)cc23)CC1 [compound 674]
- Emax (M1 muscarinic receptor; [5]): 25 to 100%
- M1 Activity (M1 muscarinic receptor; [6]): x (activity was measured to be greater than 5.0 μM)
- Emax (M4 muscarinic receptor; [5]): 25 to 100%
- M4 Activity (M4 muscarinic receptor; [7]): x (activity was measured to be greater than 5.0 μM)

SMILES: c1ccc2c(c1)NCC21CCN(CC2CCCCC2)CC1 [compound 342]
- M1 Activity (M1 muscarinic receptor; [1]): xxx (activity was measured to be less than 0.1 μM)
- Emax (M1 muscarinic receptor; [2]): 65 to 85%
- M4 Activity (M4 muscarinic receptor; [3]): xx (activity was measured to be between 0.1 μM and 1.0 μM)
- Emax (M4 muscarinic receptor; [4]): 65 to 85%

SMILES: CC#CCOC(=O)N1C2CCC1CC(N1CCC3(CC1)CN(C(C)=O)c1ccccc13)C2 (centres unmarked) [compound 777]
- Emax (M1 muscarinic receptor; [5]): 25 to 100%
- M1 Activity (M1 muscarinic receptor; [6]): xxx (activity was measured to be less than 2.0 μM)
- Emax (M4 muscarinic receptor; [5]): 25 to 100%
- M4 Activity (M4 muscarinic receptor; [7]): xxx (activity was measured to be less than 2.0 μM)

SMILES: CCCOC(=O)N1CCC(N2CCC3(CC2)CN(C(C)=O)c2ccc(C)cc23)CC1 [compound 252]
- M1 Activity (M1 muscarinic receptor; [1]): x (activity was measured to be greater than 1.0 μM)
- Emax (M1 muscarinic receptor; [2]): < 65%
- M4 Activity (M4 muscarinic receptor; [3]): x (activity was measured to be greater than 1.0 μM)
- Emax (M4 muscarinic receptor; [4]): 65 to 85%

SMILES: CC#CC(C)OC(=O)N1CC[C@@H](CN2CCC3(CC2)CN(C(=O)N(C)C)c2ccc(F)cc23)C1 (some centres unmarked) [compound 479]
- Emax (M1 muscarinic receptor; [5]): 25 to 100%
- M1 Activity (M1 muscarinic receptor; [6]): xxx (activity was measured to be less than 2.0 μM)
- Emax (M4 muscarinic receptor; [5]): < 25%
- M4 Activity (M4 muscarinic receptor; [7]): xxx (activity was measured to be less than 2.0 μM)

SMILES: Cc1ccc2c(c1)C1(CCN(CC3CC4CCC(C4)C3)CC1)CN2 (centres unmarked) [compound 622]
- Emax (M1 muscarinic receptor; [5]): < 25%
- M1 Activity (M1 muscarinic receptor; [6]): x (activity was measured to be greater than 5.0 μM)
- Emax (M4 muscarinic receptor; [5]): < 25%
- M4 Activity (M4 muscarinic receptor; [7]): x (activity was measured to be greater than 5.0 μM)

SMILES: CCOC(=O)N1CCC(N2CCC3(CC2)CN(C(=O)CC)c2ccc(F)cc23)CC1 [compound 317]
- M1 Activity (M1 muscarinic receptor; [1]): x (activity was measured to be greater than 1.0 μM)
- Emax (M1 muscarinic receptor; [2]): < 65%
- M4 Activity (M4 muscarinic receptor; [3]): x (activity was measured to be greater than 1.0 μM)
- Emax (M4 muscarinic receptor; [4]): < 65%

SMILES: COC(=O)N1CC[C@@H](CN2CCC3(CC2)CN(C(=O)N(C)C)c2ccc(F)cc23)C1 [compound 540]
- Emax (M1 muscarinic receptor; [5]): 25 to 100%
- M1 Activity (M1 muscarinic receptor; [6]): xxx (activity was measured to be less than 2.0 μM)
- Emax (M4 muscarinic receptor; [5]): 25 to 100%
- M4 Activity (M4 muscarinic receptor; [7]): xxx (activity was measured to be less than 2.0 μM)

SMILES: CCc1nccnc1N1CCC(N2CCC3(CC2)CN(C(=O)N(C)C)c2ccc(F)cc23)CC1 [compound 967]
- Emax (M1 muscarinic receptor; [5]): 25 to 100%
- M1 Activity (M1 muscarinic receptor; [8]): xx (activity was measured to be between 2.0 μM and 5.0 μM)
- Emax (M4 muscarinic receptor; [5]): 25 to 100%
- M4 Activity (M4 muscarinic receptor; [9]): xx (activity was measured to be between 2.0 μM and 5.0 μM)

SMILES: CC(=O)N[C@H]1CC2(CCN(CC(=O)N3CCOCC3)CC2)c2ccccc21 [compound 480]
- Emax (M1 muscarinic receptor; [5]): < 25%
- M1 Activity (M1 muscarinic receptor; [6]): x (activity was measured to be greater than 5.0 μM)
- Emax (M4 muscarinic receptor; [5]): < 25%
- M4 Activity (M4 muscarinic receptor; [7]): x (activity was measured to be greater than 5.0 μM)

SMILES: COC(=O)N1CC2(CCN(C3CC4CCC(C3)N4C(=O)O[C@H]3CCOC3)CC2)c2cc(F)ccc21 (some centres unmarked) [compound 96]
- M1 Activity (M1 muscarinic receptor; [1]): xx (activity was measured to be between 0.1 μM and 1.0 μM)
- Emax (M1 muscarinic receptor; [2]): 65 to 85%
- M4 Activity (M4 muscarinic receptor; [3]): x (activity was measured to be greater than 1.0 μM)
- Emax (M4 muscarinic receptor; [4]): < 65%

SMILES: CCCC(=O)N[C@H]1CC2(CCN(CC3CCCCC3)CC2)c2ccccc21 [compound 797]
- Emax (M1 muscarinic receptor; [5]): 25 to 100%
- M1 Activity (M1 muscarinic receptor; [6]): x (activity was measured to be greater than 5.0 μM)
- Emax (M4 muscarinic receptor; [5]): 25 to 100%
- M4 Activity (M4 muscarinic receptor; [7]): xxx (activity was measured to be less than 2.0 μM)

SMILES: CC(=O)N1CC2(CCN(CC3CCOCC3)CC2)c2cc(F)ccc21 [compound 644]
- Emax (M1 muscarinic receptor; [5]): < 25%
- M1 Activity (M1 muscarinic receptor; [6]): x (activity was measured to be greater than 5.0 μM)
- Emax (M4 muscarinic receptor; [5]): < 25%
- M4 Activity (M4 muscarinic receptor; [7]): x (activity was measured to be greater than 5.0 μM)

SMILES: COc1cc2c(cc1OC)C1(CCN(C3CC(C)(C)CC(C)(C)C3)CC1)CC2NC(C)=O (centres unmarked) [compound 566]
- Emax (M1 muscarinic receptor; [5]): < 25%
- M1 Activity (M1 muscarinic receptor; [6]): x (activity was measured to be greater than 5.0 μM)
- Emax (M4 muscarinic receptor; [5]): < 25%
- M4 Activity (M4 muscarinic receptor; [7]): x (activity was measured to be greater than 5.0 μM)

SMILES: CCOC(=O)N1CCC(N2CCC3(CC2)CNc2ccc(F)cc23)CC1 [compound 952]
- Emax (M1 muscarinic receptor; [5]): 25 to 100%
- M1 Activity (M1 muscarinic receptor; [8]): xxx (activity was measured to be less than 2.0 μM)
- Emax (M4 muscarinic receptor; [5]): 25 to 100%
- M4 Activity (M4 muscarinic receptor; [9]): xxx (activity was measured to be less than 2.0 μM)

SMILES: CC(C)OC(=O)N1C2CCC1CC(N1CCC3(CC1)CN(S(C)(=O)=O)c1ccc(F)cc13)C2 (centres unmarked) [compound 170]
- M1 Activity (M1 muscarinic receptor; [1]): xx (activity was measured to be between 0.1 μM and 1.0 μM)
- Emax (M1 muscarinic receptor; [2]): 65 to 85%
- M4 Activity (M4 muscarinic receptor; [3]): x (activity was measured to be greater than 1.0 μM)
- Emax (M4 muscarinic receptor; [4]): > 85%

SMILES: CCCOC(=O)N1C2CCC1CC(N1CCC3(CC1)CN(C(=O)C1CCC1)c1ccc(F)cc13)C2 (centres unmarked) [compound 302]
- M1 Activity (M1 muscarinic receptor; [1]): x (activity was measured to be greater than 1.0 μM)
- Emax (M1 muscarinic receptor; [2]): < 65%
- M4 Activity (M4 muscarinic receptor; [3]): x (activity was measured to be greater than 1.0 μM)
- Emax (M4 muscarinic receptor; [4]): < 65%

SMILES: CCOC(=O)N1CCC(N2CCC3(CC2)CN(C(C)=O)c2ccc(F)cc23)C1 (centres unmarked) [compound 113]
- M1 Activity (M1 muscarinic receptor; [1]): xxx (activity was measured to be less than 0.1 μM)
- Emax (M1 muscarinic receptor; [2]): 65 to 85%
- M4 Activity (M4 muscarinic receptor; [3]): x (activity was measured to be greater than 1.0 μM)
- Emax (M4 muscarinic receptor; [4]): < 65%

SMILES: CC(=O)N[C@H]1CC2(CCN(C3CCCCCCC3)CC2)c2ccccc21 [compound 261]
- M1 Activity (M1 muscarinic receptor; [1]): xx (activity was measured to be between 0.1 μM and 1.0 μM)
- Emax (M1 muscarinic receptor; [2]): < 65%
- M4 Activity (M4 muscarinic receptor; [3]): x (activity was measured to be greater than 1.0 μM)
- Emax (M4 muscarinic receptor; [4]): < 65%
